Experimental data: patent US12552767B2, “3-heteroaryl pyrrolidine and piperidine orexin receptor agonists” (Merck Sharp & Dohme LLC, priority 2020, dated 2026)

Molecular target: T1, human OX2R (Homo sapiens, UniProt O43614)
T1 construct: expressed in transfected cells; host or cells: CHO (Chinese hamster ovary) cells, grown under G418 selection
T1 sequence (O43614 1-444): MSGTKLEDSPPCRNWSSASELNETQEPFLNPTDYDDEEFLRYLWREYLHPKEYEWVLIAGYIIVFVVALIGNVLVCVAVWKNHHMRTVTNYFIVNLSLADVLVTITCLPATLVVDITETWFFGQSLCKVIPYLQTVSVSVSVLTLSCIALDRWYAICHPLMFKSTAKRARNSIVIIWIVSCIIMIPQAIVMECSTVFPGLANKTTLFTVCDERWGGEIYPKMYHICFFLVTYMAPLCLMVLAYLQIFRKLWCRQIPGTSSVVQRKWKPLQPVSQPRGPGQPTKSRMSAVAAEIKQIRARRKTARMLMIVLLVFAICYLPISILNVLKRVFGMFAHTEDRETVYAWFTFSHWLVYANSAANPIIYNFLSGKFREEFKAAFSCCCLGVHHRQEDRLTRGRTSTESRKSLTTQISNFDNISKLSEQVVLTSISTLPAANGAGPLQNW
Experiment: IP-One (IPOne) orexin receptor agonist assay in CHO cells expressing human OX2R
Format: cell-based
Conditions: for EC50: CHO cells expressing human OX2R, IP-One IP-1 detection, 2 hours incubation, four parameter logistic fit, read-out: OX2R Potency, EC50; for % of reference agonist maximal effect: human OX2R, percentage of sample raw value/mean max effect (reference compound at 1 uM with 100% activity)
Method in brief: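 CHO cells stably expressing human OX2R were stimulated with compound (10-point ½-log dilutions) for 2 h at 37 °C. IP-1 accumulation was read by HTRF (IP-One, 665/620 nm). EC50 from a four-parameter fit; % effect relative to 1 μM reference agonist control.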

O=C(OCC1CCC1)N1CCC[C@H](c2cc[nH]n2)[C@@H]1CO[C@H]1CC[C@@H](c2ccccc2)CC1 (relative stereo) [Example 104, cyclobutylmethyl (CIS)-2-((((CIS)-4-phenylcyclohexyl)oxy)methyl)-3-(1H-pyrazol-3-yl)piperidine-1-carboxylate]
EC50: 3.85 µM
% of reference agonist maximal effect: 65.1%

COCc1c[nH]nc1[C@H]1CCCN(C(=O)OC)[C@H]1CO[C@H]1CC[C@@H](c2ccccc2)CC1 (relative stereo) [Example 57, Methyl cis-3-(4-(methoxymethyl)-1H-pyrazol-3-yl)-2-((((CIS)-4-phenylcyclohexyl)oxy)methyl)-piperidine-1-carboxylate]
EC50: 0.351 µM
% of reference agonist maximal effect: 99.6%

COC(=O)N1C[C@H](C)C[C@H](c2ccn[nH]2)[C@@H]1CO[C@H]1CC[C@@H](c2ccccc2)CC1 (racemic) [Example 41, (+/−) methyl (2R,3S,5R)-5-methyl-2-((((CIS)-4-phenylcyclohexyl)oxy)methyl)-3-(1H-pyrazol-5-yl)piperidine-1-carboxylate]
EC50: 2.36 µM
% of reference agonist maximal effect: 95.4%

CCNC(=O)N1CCCC(c2[nH]ncc2C)C1COC1CCC(C(C)C)CC1 (single isomer, unassigned) [Example 61, N-ethyl-2-(((4-isopropylcyclohexyl)oxy)methyl)-3-(4-methyl-1H-pyrazol-5-yl)piperidine-1-carboxamide]
EC50: 3.51 µM
% of reference agonist maximal effect: 87.4%

COC(=O)N1CCC[C@H](c2n[nH]cc2Cl)[C@@H]1CO[C@H]1CC[C@@H](c2ccccc2Cl)CC1 (racemic) [Example 47, Methyl cis-3-(4-chloro-1H-pyrazol-3-yl)-2-((((CIS)-4-(2-chlorophenyl)cyclohexyl)oxy)methyl)piperidine-1-carboxylate]
EC50: 0.357 µM
% of reference agonist maximal effect: 99.2%

C#CCCC(=O)N1CCC[C@H](c2cc[nH]n2)[C@@H]1CO[C@H]1CC[C@@H](C(C)C)CC1 (relative stereo) [Example 85, 1-((CIS)-2-((((CIS)-4-isopropylcyclohexyl)oxy)methyl)-3-(1H-pyrazol-3-yl)piperidin-1-yl)pent-4-yn-1-one]
EC50: 7.58 µM
% of reference agonist maximal effect: 87%

CC1(C)C[C@H]1C(=O)N1CCC[C@H](c2cc[nH]n2)[C@@H]1COC1CCC(c2ccccc2)CC1 (relative stereo) [Example 91, ((R)-2,2-dimethylcyclopropyl)((CIS)-2-((((CIS)-4-phenylcyclohexyl)oxy)methyl)-3-(1H-pyrazol-3-yl)piperidin-1-yl)methanone]
EC50: 6.7 µM
% of reference agonist maximal effect: 81%

COC(=O)N1CCC[C@H](c2n[nH]cc2C(C)C)[C@@H]1CO[C@H]1CC[C@@H](c2ccccc2)CC1 (single isomer, unassigned) [Example 49]
EC50: 0.795 µM
% of reference agonist maximal effect: 99.0%

CCc1c[nH]nc1[C@@H]1CCCN(C(=O)OC)[C@@H]1CO[C@H]1CC[C@@H](c2ccccc2)CC1 [Example 44, (2S,3R)-3-(4-ethyl-1H-pyrazol-3-yl)-2-((((CIS)-4-phenylcyclohexyl)oxy)methyl)piperidine-1-carboxylate]
EC50: > 10 µM
% of reference agonist maximal effect: 9.5%

O=C(OCC(F)(F)F)N1CCCC(c2ccn[nH]2)C1CO[C@H]1CC[C@@H](c2c(F)ccc(F)c2F)CC1 (relative stereo) [Example 31, 2,2,2-Trifluoroethyl 3-(1H-pyrazol-5-yl)-2-((((CIS)-4-(2,3,6-trifluorophenyl)cyclohexyl)-oxy)methyl)piperidine-1-carboxylate]
EC50: 7.44 µM
% of reference agonist maximal effect: 72.7%

CC(C)NC(=O)N1CCC[C@H](c2cc[nH]n2)[C@@H]1CO[C@H]1CC[C@@H](C(C)C)CC1 (relative stereo) [Example 121, (CIS)-N-isopropyl-2-((((CIS)-4-isopropylcyclohexyl)oxy)methyl)-3-(1H-pyrazol-3-yl)piperidine-1-carboxamide]
EC50: 1.54 µM
% of reference agonist maximal effect: 96.1%

COC(=O)N1CCC[C@H](c2[nH]ncc2C(F)(F)F)[C@@H]1CO[C@H]1CC[C@@H](c2ccccc2)CC1 (relative stereo) [Example 25, methyl (CIS)-2-((((CIS)-4-phenylcyclohexyl)oxy)methyl)-3-(4-(trifluoromethyl)-1H-pyrazol-5-yl)piperidine-1-carboxylate]
EC50: 0.879 µM
% of reference agonist maximal effect: 92.8%

COC(=O)N1CCC[C@H](c2n[nH]cc2C)[C@@H]1CO[C@H]1CC[C@@H](c2cccc(F)c2)CC1 (relative stereo) [Example 15, methyl (CIS)-2-((((CIS)-4-(3-fluorophenyl)cyclohexyl)oxy)methyl)-3-(4-methyl-1H-pyrazol-3-yl)piperidine-1-carboxylate]
EC50: 0.117 µM
% of reference agonist maximal effect: 99.3%

CN1C[C@H](COC(=O)N2CCC[C@H](c3cc[nH]n3)[C@@H]2COC2CCC(c3ccccc3)CC2)OCC1=O (stereo partly drawn) [Example 94, ((R)-4-methyl-5-oxomorpholin-2-yl)methyl (CIS)-2-((((CIS)-4-phenylcyclohexyl)oxy)methyl)-3-(1H-pyrazol-3-yl)piperidine-1-carboxylate]
EC50: 6.64 µM
% of reference agonist maximal effect: 93.5%

O=C(OC1CCCC1)N1CCC[C@H](c2cc[nH]n2)[C@@H]1CO[C@H]1CC[C@@H](c2ccccc2)CC1 (relative stereo) [Example 117, cyclopentyl (CIS)-2-((((CIS)-4-phenylcyclohexyl)oxy)methyl)-3-(1H-pyrazol-3-yl)piperidine-1-carboxylate]
EC50: 8 µM
% of reference agonist maximal effect: 47.3%

COCC(C)NC(=O)N1CCC[C@H](c2cc[nH]n2)[C@@H]1CO[C@H]1CC[C@@H](c2ccccc2)CC1 (relative stereo) [Example 126, (CIS)-N-(1-methoxypropan-2-yl)-2-((((CIS)-4-phenylcyclohexyl)oxy)methyl)-3-(1H-pyrazol-3-yl)piperidine-1-carboxamide]
EC50: 0.944 µM
% of reference agonist maximal effect: 100%

CC(C)[C@H]1CC[C@@H](OC[C@H]2[C@@H](c3cc[nH]n3)CCCN2C(=O)OCc2ccccc2Cl)CC1 (relative stereo) [Example 93, 2-chlorobenzyl (CIS)-2-((((CIS)-4-isopropylcyclohexyl)oxy)methyl)-3-(1H-pyrazol-3-yl)piperidine-1-carboxylate]
EC50: 5.22 µM
% of reference agonist maximal effect: 28.5%

COC(=O)N1[C@H](C)CC(c2[nH]ncc2C)[C@@H]1CO[C@H]1CC[C@@H](c2ccccc2)CC1 (stereo partly drawn) [Example 36, Methyl (2R,5R)-5-methyl-3-(4-methyl-1H-pyrazol-5-yl)-2-((((CIS)-4-phenylcyclohexyl)oxy)methyl)pyrrolidine-1-carboxylate]
EC50: 1.03 µM
% of reference agonist maximal effect: 96.3%

C#CCCCC(=O)N1CCC[C@H](c2cc[nH]n2)[C@@H]1CO[C@H]1CC[C@@H](C(C)C)CC1 (relative stereo) [Example 86, 1-((CIS)-2-((((CIS)-4-isopropylcyclohexyl)oxy)methyl)-3-(1H-pyrazol-3-yl)piperidin-1-yl)hex-5-yn-1-one]
EC50: 8.39 µM
% of reference agonist maximal effect: 64.7%
